# Experiments:
# Conditions in all cases: 72 h
# Caco-2 [1] = experiment: cell viability relative to DMSO; higher = less toxic
# Calu-3 [2] = experiment: as above
# HepG2 [3] = experiment: as above
# U2OS [4] = experiment: as above
# Vero E6 [5] = experiment: as above
# Caco-2 [6] = experiment: relative viability EC50 (midpoint between 100% and the lowest measured viability); higher = less toxic
# Calu-3 [7] = experiment: as above
# HepG2 [8] = experiment: as above
# U2OS [9] = experiment: as above
# Vero E6 [10] = experiment: as above
# Caco-2 [11] = experiment: drug sensitivity score (DSS) for viability; higher = more toxic; extreme values may be limits of the assay
# Calu-3 [12] = experiment: as above
# HepG2 [13] = experiment: as above
# U2OS [14] = experiment: as above
# Vero E6 [15] = experiment: as above
SMILES,cell viability (Caco-2 [1]; 1 nM) [%],cell viability (Caco-2 [1]; 10 nM) [%],cell viability (Caco-2 [1]; 100 nM) [%],cell viability (Caco-2 [1]; 1000 nM) [%],cell viability (Caco-2 [1]; 10000 nM) [%],cell viability (Calu-3 [2]; 1 nM) [%],cell viability (Calu-3 [2]; 10 nM) [%],cell viability (Calu-3 [2]; 100 nM) [%],cell viability (Calu-3 [2]; 1000 nM) [%],cell viability (Calu-3 [2]; 10000 nM) [%],cell viability (HepG2 [3]; 1 nM) [%],cell viability (HepG2 [3]; 10 nM) [%],cell viability (HepG2 [3]; 100 nM) [%],cell viability (HepG2 [3]; 1000 nM) [%],cell viability (HepG2 [3]; 10000 nM) [%],cell viability (U2OS [4]; 1 nM) [%],cell viability (U2OS [4]; 10 nM) [%],cell viability (U2OS [4]; 100 nM) [%],cell viability (U2OS [4]; 1000 nM) [%],cell viability (U2OS [4]; 10000 nM) [%],cell viability (Vero E6 [5]; 1 nM) [%],cell viability (Vero E6 [5]; 10 nM) [%],cell viability (Vero E6 [5]; 100 nM) [%],cell viability (Vero E6 [5]; 1000 nM) [%],cell viability (Vero E6 [5]; 10000 nM) [%],relative viability EC50 (Caco-2 [6]) [µM],relative viability EC50 (Calu-3 [7]) [µM],relative viability EC50 (HepG2 [8]) [µM],relative viability EC50 (U2OS [9]) [µM],relative viability EC50 (Vero E6 [10]) [µM],drug sensitivity score (Caco-2 [11]),drug sensitivity score (Calu-3 [12]),drug sensitivity score (HepG2 [13]),drug sensitivity score (U2OS [14]),drug sensitivity score (Vero E6 [15])
COc1cc(Cc2cnc(N)nc2N)c(C(C)C)cc1OC [Ro-3],94.9,90.5,97.3,101,102,98.1,87.8,98,101,103,99.2,92.3,93.5,101,103,97.8,99.7,95,102,102,90.6,95.7,96.5,94.9,103,> 10,> 10,> 10,> 10,> 10,0,0,0,0,0
O=C(O)c1ccccc1Nc1cccc(OCc2ccc3ccccc3n2)c1 [SR-2640],105,103,107,96.8,91.7,97.6,94.6,103,98.2,98.4,87.9,96.3,96.9,101,105,105,98.1,103,99.2,101,92,98.9,92.9,95,86.9,> 10,> 10,> 10,> 10,> 10,0,0,0,0,0
COc1cc(NC(=O)c2cccc(-n3cc(NC(=O)Nc4cccc(C)c4)cn3)c2)cc(OC)c1OC [SR-3576],104,105,101,85.2,87.7,91.1,93.9,93.4,93.1,81,98.3,99.4,94.1,95.3,99.4,100,102,100,99.6,91.1,101,102,97.2,96.6,95.9,> 10,> 10,> 10,> 10,> 10,1.3,0.6,0,0,0
Cc1sc(C)c2c1CCC=C2c1c[nH]cn1 [TC-G-1000],106,93.3,100,99.2,94.6,102,97.3,102,97.2,102,111,108,111,97,104,101,96.8,95.6,102,97,103,96.4,100,99.9,96.7,> 10,> 10,> 10,> 10,> 10,0,0,0,0,0
N#Cc1cnc2cnc(NCc3cccnc3)cc2c1Nc1ccc(F)c(Cl)c1 [TC-S-7006],93.3,99,91.1,88.3,75.6,96.6,96.8,96.9,91.8,89,102,93,107,91.2,50,96.3,106,96.1,96.8,85.2,97.2,94.1,94,85.8,95.4,> 10,> 10,1.85,> 10,> 10,1.9,0,4.1,0.4,0
Nc1nccc(/C=C/c2ccccc2)n1 [TCN238],89.6,98,89.2,100,83.2,98.7,97.9,99.4,102,103,110,92.9,112,97.3,105,96,99.9,97.6,103,97.5,104,98.6,101,97.7,103,> 10,> 10,> 10,> 10,> 10,0.4,0,0,0,0
Cn1c2cc([S+](C)[O-])sc2c2cnn(Cc3cccc(N)c3)c(=O)c21 (stereo not given) [TEPP-46],98.7,98.3,92.7,98.1,89,104,97.6,96.7,94.7,94.7,119,103,111,98.5,102,98.3,97.1,97.8,100,98.7,103,97.4,106,96.3,91.9,> 10,> 10,> 10,> 10,> 10,0,0,0,0,0
CN(C)C/C=C/C(=O)Nc1ccc(C(=O)Nc2cccc(Nc3ncc(Cl)c(-c4c[nH]c5ccccc45)n3)c2)cc1 [THZ1],95.6,104,88.9,36.9,37,96.1,97,71.8,39.6,40.7,108,87.2,10,5.4,4.8,97,102,58.2,6.2,4.9,103,101,99.4,44.4,11.4,0.185,0.107,0.0248,0.11,0.811,13.5,14.4,30.2,22.6,11.5
COc1cc2c(NC3CCN(C)CC3)nc(N3CCCN(C)CC3)nc2cc1OCCOCCN(C)C [UNC0321],105,94,102,102,100,89.5,107,99,99.2,97,99.9,107,105,102,102,100,100,98.3,102,97.6,99.7,104,104,97,96.9,> 10,> 10,> 10,> 10,> 10,0,0,0,0,0
CC(C)(C)C#Cc1cc(N(C(=O)[C@H]2CC[C@H](C)CC2)[C@H]2CC[C@@H](O)CC2)c(C(=O)O)s1 [VX-222],103,114,102,99.8,101,92.5,94.9,99.2,99.3,104,98.7,101,91.7,96.2,101,105,106,98.2,105,97.6,104,96.1,106,99.8,102,> 10,> 10,> 10,> 10,> 10,0,0,0,0,0
CC[C@]12C=CCN3CC[C@@]4(c5cc([C@@]6(C(=O)OC)C[C@@H]7C[C@@H](C(C)(F)F)CN(Cc8c6[nH]c6ccccc86)C7)c(OC)cc5N(C)[C@H]4[C@@](O)(C(=O)OC)[C@@H]1OC(C)=O)[C@@H]32 [Vinflunine Ditartrate],88.1,104,77.4,55.2,41.2,108,101,90.2,69.3,45.9,107,95.1,61.2,32.8,34.3,101,98.1,87.5,48.6,23.1,102,99.5,103,64.1,24.3,0.213,0.655,0.0789,0.493,1.04,10.9,6.8,17,11.3,8.8
COc1ccc(N(C(=O)Oc2c(C)cccc2C)c2ccnc(Nc3ccc(N4CCN(C)CC4)cc3)n2)c(OC)c1 [WH-4-023],101,89.4,102,114,103,93.3,104,95.8,104,89.8,92.7,91.9,93.2,100,101,101,96.8,98.1,107,99.8,95.4,97.4,96.7,93.7,84.8,> 10,> 10,> 10,> 10,> 10,0,0,0,0,0.2
CCOc1ccc(S(=O)(=O)O)c2cccnc12 [actinoquinol],91.1,78,87.3,102,95.1,99.4,99.4,99,99.8,99.1,91,101,95.1,98.5,110,96.3,98.1,94,94.6,95.5,95.4,90.2,92.5,95.1,101,> 10,> 10,> 10,> 10,> 10,0,0,0,0,0
